Assay results taken from patent publication US20260109693A1, “BUTENOLIDE COMPOUNDS CONTAINING THIAZOLIDINONE STRUCTURE AS WELL AS PREPARATION METHOD THEREFOR AND USE THEREOF” (priority 2023, published 2026).

Tested on: Fusarium graminearum strains resistant to phenamacril
Assay type: cell-based

Substance: 5-(4-methyl-2-oxo-1-oxaspiro[4,5]-dec-3-en-3-ethylidene)-2-thio-4-thiazolidinone [Compound 3-1]
- inhibition rate on resistant strains compared with standard strain (1 mg/L and 0.5 mg/L, resistant strains T10, T2-5, T32, T13, T12 vs standard strain 2021): the same as that of the standard wild-type Fusarium graminearum strain
- growth inhibition of all resistant strains (50 mg/L, resistant strains T2-5, T10, T32, T18, T48, T79): completely inhibit the growth of all resistant strains
